# Results reported in ChEMBL document CHEMBL1201862, “PubChem BioAssay data set” (2004).
#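 Dose response: 5 concentrations. Exposure: 48 h. Format: 96-well plates. Endpoint: linear interpolation; highest concentration if not reached. At the GI50, growth is halved.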 The source made the active and inactive calls. Rule as the data show it: active = GI50 up to about 1.1 µM and inactive = higher.
# How the values were obtained:
# Experiment in all cases: NCI tumour cell line growth inhibition, 48 h
# [1] = test system: HCC 2998
# [2] = test system: SN12C
# [3] = test system: HT-29
# [4] = test system: HCT-116
# [5] = test system: U-251
# [6] = test system: UACC-257
# [7] = test system: SF-539
# [8] = test system: Hs-578T
# [9] = test system: A549
# [10] = test system: T47D
# [11] = test system: UACC-62
# [12] = test system: MDA-MB-231
# [13] = test system: CCRF-CEM
# [14] = test system: HOP-62
# [15] = test system: SK-OV-3
# [16] = test system: MCF7
# [17] = test system: LOX IMVI
# [18] = test system: HOP-92
# [19] = test system: NCI-H226
# [20] = test system: SK-MEL-5
# [21] = test system: SNB-19
# [22] = test system: IGROV-1
# [23] = test system: 786-0
# [24] = test system: NCI-H460
# [25] = test system: PC-3
# [26] = test system: COLO 205
# [27] = test system: MDA-N
# [28] = test system: RXF 393
# [29] = test system: KM12
# [30] = test system: ACHN
# [31] = test system: MOLT-4
# [32] = test system: SR
# [33] = test system: M14
# [34] = test system: SF-268
# [35] = test system: NCI/ADR-RES
# [36] = test system: EKVX
# [37] = test system: HCT-15
# [38] = test system: SNB-75
# [39] = test system: SK-MEL-28
# [40] = test system: BT-549
# [41] = test system: SF-295
# [42] = test system: RPMI-8226
# [43] = test system: DU-145
# [44] = test system: TK-10
# [45] = test system: MDA-MB-435
# [46] = test system: NCI-H23
# [47] = test system: CAKI-1
# [48] = test system: SW-620
# [49] = test system: K562
# [50] = test system: OVCAR-3
# [51] = test system: NCI-H522
# [52] = test system: SK-MEL-2
# [53] = test system: HL-60
# [54] = test system: OVCAR-8
# [55] = test system: UO-31
# [56] = test system: OVCAR-4
# [57] = test system: Malme-3M
# [58] = test system: OVCAR-5
smiles,measurement,setting,value
Cc1cc(-c2nc3c(O)cccc3s2)ccc1N,GI50,[1],32.8 µM (inactive)
same,GI50,[2],27.2 µM (inactive)
same,GI50,[3],21.8 µM (inactive)
same,GI50,[4],20.4 µM (inactive)
same,GI50,[5],29.6 µM (inactive)
same,GI50,[6],20.3 µM (inactive)
same,GI50,[7],47.9 µM (inactive)
same,GI50,[8],18.2 µM (inactive)
same,GI50,[9],19.1 µM (inactive)
same,GI50,[10],74.5 µM (inactive)
same,GI50,[11],12.2 µM (inactive)
same,GI50,[12],22.9 µM (inactive)
same,GI50,[13],27.3 µM (inactive)
same,GI50,[14],25.6 µM (inactive)
same,GI50,[15],39.1 µM (inactive)
same,GI50,[16],13 µM (inactive)
same,GI50,[17],17.3 µM (inactive)
same,GI50,[18],18.8 µM (inactive)
same,GI50,[19],31.6 µM (inactive)
same,GI50,[20],33.2 µM (inactive)
same,GI50,[21],15.3 µM (inactive)
same,GI50,[22],17 µM (inactive)
same,GI50,[23],29.3 µM (inactive)
same,GI50,[24],30.5 µM (inactive)
same,GI50,[25],21.2 µM (inactive)
same,GI50,[26],38.7 µM (inactive)
same,GI50,[27],25.4 µM (inactive)
same,GI50,[28],67.9 µM (inactive)
same,GI50,[29],23.3 µM (inactive)
same,GI50,[30],17.2 µM (inactive)
same,GI50,[31],25.4 µM (inactive)
same,GI50,[32],25.5 µM (inactive)
same,GI50,[33],16.7 µM (inactive)
same,GI50,[34],21 µM (inactive)
same,GI50,[35],19.9 µM (inactive)
same,GI50,[36],20.2 µM (inactive)
same,GI50,[37],25.4 µM
same,GI50,[38],83.6 µM (inactive)
same,GI50,[39],57.9 µM (inactive)
same,GI50,[40],22.1 µM (inactive)
same,GI50,[41],25.9 µM (inactive)
same,GI50,[42],45 µM (inactive)
same,GI50,[43],> 100 µM (inactive)
same,GI50,[44],26.8 µM (inactive)
same,GI50,[45],17.7 µM (inactive)
same,GI50,[46],26.9 µM (inactive)
same,GI50,[47],21.3 µM (inactive)
same,GI50,[48],41.4 µM (inactive)
same,GI50,[49],39.2 µM (inactive)
same,GI50,[50],26.5 µM (inactive)
same,GI50,[51],17.2 µM (inactive)
same,GI50,[52],22.7 µM (inactive)
same,GI50,[53],19.3 µM (inactive)
same,GI50,[54],20 µM (inactive)
same,GI50,[55],15.8 µM (inactive)
Cc1ccc(-c2nc(N/N=C/C=C/c3ccccc3)c3ccccc3n2)cc1,GI50,[1],28.4 µM (inactive)
same,GI50,[2],24.8 µM (inactive)
same,GI50,[56],50.5 µM (inactive)
same,GI50,[3],32.8 µM (inactive)
same,GI50,[4],26.6 µM (inactive)
same,GI50,[5],33.3 µM (inactive)
same,GI50,[6],34 µM (inactive)
same,GI50,[7],55.5 µM (inactive)
same,GI50,[8],> 100 µM (inactive)
same,GI50,[9],34.4 µM (inactive)
same,GI50,[10],60.5 µM (inactive)
same,GI50,[11],17.1 µM (inactive)
same,GI50,[12],16.6 µM (inactive)
same,GI50,[13],> 100 µM (inactive)
same,GI50,[14],64.4 µM (inactive)
same,GI50,[15],23.8 µM (inactive)
same,GI50,[16],14 µM (inactive)
same,GI50,[17],48.6 µM (inactive)
same,GI50,[18],31.3 µM (inactive)
same,GI50,[57],30 µM (inactive)
same,GI50,[19],> 100 µM (inactive)
same,GI50,[20],14.8 µM (inactive)
same,GI50,[21],37.6 µM (inactive)
same,GI50,[22],19.2 µM (inactive)
same,GI50,[23],30 µM (inactive)
same,GI50,[24],28.6 µM (inactive)
same,GI50,[25],28.6 µM (inactive)
same,GI50,[26],57.3 µM (inactive)
same,GI50,[27],74.6 µM (inactive)
same,GI50,[28],26.2 µM (inactive)
same,GI50,[29],54 µM (inactive)
same,GI50,[30],19.1 µM (inactive)
same,GI50,[31],> 100 µM (inactive)
same,GI50,[58],17.4 µM (inactive)
same,GI50,[32],> 100 µM (inactive)
same,GI50,[33],29.4 µM (inactive)
same,GI50,[34],33.5 µM (inactive)
same,GI50,[35],72.9 µM (inactive)
same,GI50,[36],15 µM (inactive)
same,GI50,[37],48.4 µM
same,GI50,[38],33.6 µM (inactive)
same,GI50,[39],34.2 µM (inactive)
same,GI50,[40],23.1 µM (inactive)
same,GI50,[41],23.2 µM (inactive)
same,GI50,[42],> 100 µM (inactive)
same,GI50,[43],25.9 µM (inactive)
same,GI50,[44],20 µM (inactive)
same,GI50,[45],52 µM (inactive)
same,GI50,[46],44.1 µM (inactive)
same,GI50,[47],38.8 µM (inactive)
same,GI50,[48],29.1 µM (inactive)
same,GI50,[49],> 100 µM (inactive)
same,GI50,[50],31.6 µM (inactive)
same,GI50,[51],21.3 µM (inactive)
same,GI50,[52],24.9 µM (inactive)
same,GI50,[53],> 100 µM (inactive)
same,GI50,[54],44.2 µM (inactive)
same,GI50,[55],83.6 µM (inactive)
